Results reported in US20240065971A1, “METHODS OF TREATING ABC-DLBCL USING INHIBITORS OF BRUTONS TYROSINE KINASE” (Pharmacyclics LLC, priority 2010, published 2024).

What was measured:
OCI-Ly10 cells [1] = assay: Constitutive IL-10 secretion by ELISA; assay type: cell-based
OCI-Ly10 cells [2] = assay: IgM/IgG stimulated calcium flux (Fura-2AM); assay type: cell-based; conditions: OCI-Ly10, inhibitor added 5 min before stimulation
Description: (§1) The kinetics of calcium flux were quantitated by optical spectroscopy following standard procedures.

OCI-Ly3 cells [3] = assay: IgM/IgG stimulated calcium flux (Fura-2AM); assay type: cell-based; conditions: OCI-Ly3, inhibitor added 5 min before stimulation
Description: as §1

OCI-Ly10 cells [4] = assay: Dose response of p-ERK by Western blotting; assay type: cell-based
OCI-Ly10 cells [5] = assay: RT-PCR (Taqman) of NF-kB target genes; assay type: cell-based; conditions: 100 nM, 4 hrs
[6] = test system: OCI-Ly10 tumor xenografts; assay: OCI-Ly10 tumor xenografts in female SCID mice; assay type: in vivo; conditions: once a day 3 mg/kg or 12 mg/kg, vs vehicle
Description: Female SCID mice were implanted with 10 million […] cells in Matrigel and tumors were allowed to reach 100 mm^3.

OCI-Ly10 cells [7] = conditions: 10 nM, up to 4 hours
OCI-Ly3 cells [8] = conditions: 10 nM, up to 4 hours

## C=CC(=O)N1CCC[C@@H](n2nc(-c3ccc(Oc4ccccc4)cc3)c3c(N)ncnc32)C1 [Btk inhibitor]
OCI-Ly10 cells [1]
  Constitutive IL-10 secretion: inhibited
OCI-Ly10 cells [2]
  calcium flux after stimulation: dose-dependent reduction
OCI-Ly3 cells [3]
  calcium flux after stimulation: dose-dependent reduction
OCI-Ly10 cells [4]
  concentration that decreases p-ERK: 1 nM
OCI-Ly10 cells [5]
  Myc expression: maximally downregulated
[6]
  tumor growth: dose-dependent inhibition
OCI-Ly10 cells [7]
  Phosphorylation of AKT: rapidly abolished
  Phosphorylation of ERK: rapidly abolished
OCI-Ly3 cells [8]
  Phosphorylation of AKT: inhibited

## CC[C@H](Nc1ncnc2[nH]cnc12)c1nc2cccc(F)c2c(=O)n1-c1ccccc1 [CAL-101, reference compound]
OCI-Ly10 cells [4]
  concentration that decreases p-ERK: 100 nM
